Data reported in US11111237B2, “Bicyclic compound and use thereof” (SK BIOPHARMACEUTICALS CO., LTD., priority 2019, dated 2021).
Counter-ions that a name gives are not always drawn.

Molecular target: PRMT5-MEP50 enzyme complex (Homo sapiens (Human), UniProt O14744)
Assay: PRMT5 enzyme activity in vitro assay (methylation of histone H4R3, ELISA absorbance at 450 nm)
Assay type: biochemical
Conditions: SAM, histone H4 peptide, room temperature 2 hours, 8 points from 10 μM to 0.128 nM
In short: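 Human PRMT5-MEP50 was prepared at 5 μg/mL with SAM at 2 μM and reacted 2 h at room temperature on plate-coated histone H4 (1-20) peptide. An 8-point 1:5 compound series ran from 10 μM to 0.128 nM. H4R3 methylation was detected by antibody/HRP ELISA at 450 nm to give IC50.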

Sequence of PRMT5-MEP50 enzyme complex (O14744 2-637): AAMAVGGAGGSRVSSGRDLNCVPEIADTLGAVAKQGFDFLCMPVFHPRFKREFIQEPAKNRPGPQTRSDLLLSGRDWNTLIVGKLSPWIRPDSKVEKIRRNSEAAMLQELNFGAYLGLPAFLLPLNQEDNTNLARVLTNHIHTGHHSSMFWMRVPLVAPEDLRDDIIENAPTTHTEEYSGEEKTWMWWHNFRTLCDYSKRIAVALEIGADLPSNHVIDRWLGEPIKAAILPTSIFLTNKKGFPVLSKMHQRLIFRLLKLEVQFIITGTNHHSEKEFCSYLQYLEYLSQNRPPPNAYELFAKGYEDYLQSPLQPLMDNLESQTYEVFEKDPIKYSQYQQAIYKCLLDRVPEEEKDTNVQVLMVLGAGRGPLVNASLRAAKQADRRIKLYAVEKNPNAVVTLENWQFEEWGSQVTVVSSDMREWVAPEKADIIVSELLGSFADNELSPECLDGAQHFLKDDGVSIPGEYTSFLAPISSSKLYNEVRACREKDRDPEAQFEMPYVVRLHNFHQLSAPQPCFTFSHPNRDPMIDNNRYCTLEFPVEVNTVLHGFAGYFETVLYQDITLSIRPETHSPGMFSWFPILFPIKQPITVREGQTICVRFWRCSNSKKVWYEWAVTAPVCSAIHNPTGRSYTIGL
Sequence of PRMT5-MEP50 enzyme complex (Q9BQA1 2-342 partner): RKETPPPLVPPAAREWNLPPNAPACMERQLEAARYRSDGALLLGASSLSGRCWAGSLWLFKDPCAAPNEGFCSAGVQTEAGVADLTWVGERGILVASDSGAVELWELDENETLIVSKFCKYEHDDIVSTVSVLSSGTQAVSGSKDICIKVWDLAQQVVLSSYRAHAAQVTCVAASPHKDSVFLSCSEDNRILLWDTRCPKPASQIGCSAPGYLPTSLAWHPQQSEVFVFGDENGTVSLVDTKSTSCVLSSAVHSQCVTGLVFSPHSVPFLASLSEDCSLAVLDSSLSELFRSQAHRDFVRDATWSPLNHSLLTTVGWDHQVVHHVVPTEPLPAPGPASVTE

SMILES	IC50
C[C@@H]1CN(C[C@H](O)CN2CCc3ccccc3C2)C(=O)c2ccc(OC3CC4CCC(C3)N4CCO)cc2O1 (some centres unmarked) [Example 241]	100 to 1000 nM
C[C@@H]1CN(C[C@H](O)CN2CCc3ccccc3C2)C(=O)c2ccc(OC3CC4CCC(C3)N4CCF)cc2O1 (some centres unmarked) [Example 242]	1 to 100 nM
CC(c1ccc2c(n1)OC(C)(C)CN(C[C@H](O)CN1CCc3ccccc3C1)C2=O)N1CC2(COC2)C1 (stereo partly drawn) [Example 247, 4-[(2R)-3-(3,4-dihydro-1H-isoquinolin-2-yl)-2-hydroxy-propyl]-2,2-dimethyl-8-[1-(2-oxa-6-azaspiro[3.3]heptan-6-yl)ethyl]-3H-pyrido[3,2-f][1,4]oxazepin-5-one]	100 to 1000 nM
O=C1c2ccc(CN3CCn4cccc4C3)cc2OCCN1C[C@H](O)CN1CCc2ccccc2C1 [Example 249, 4-[(2R)-3-(3,4-dihydro-1H-isoquinolin-2-yl)-2-hydroxypropyl]-8-(3,4-dihydro-1H-pyrrolo[1,2-a]pyrazin-2-ylmethyl)-2,3-dihydro-1,4-benzoxazepin-5-one]	100 to 1000 nM
C[C@@H]1CN(C[C@H](O)CN2CCc3ccccc3C2)C(=O)c2ccc(CN3CC4(COC4)C3)cc2O1 [Example 250, (2R)-4-[(2R)-3-(3,4-dihydro-1H-isoquinolin-2-yl)-2-hydroxypropyl]-2-methyl-8-(2-oxa-6-azaspiro[3.3]heptan-6-ylmethyl)-2,3-dihydro-1,4-benzoxazepin-5-one]	100 to 1000 nM
O=C1c2ccc(CN3CCC4(CC3)COC4)cc2OCCN1C[C@H](O)CN1CCc2ccccc2C1 [Example 251, 4-[(2R)-3-(3,4-dihydro-1H-isoquinolin-2-yl)-2-hydroxypropyl]-8-(2-oxa-7-azaspiro[3.5]nonan-7-ylmethyl)-2,3-dihydro-1,4-benzoxazepin-5-one]	100 to 1000 nM
C[C@@H]1CN(C[C@H](O)CN2CCc3ccccc3C2)C(=O)c2ccc(CN3CCC4(CC3)COC4)cc2O1 [Example 252, (2R)-4-[(2R)-3-(3,4-dihydro-1H-isoquinolin-2-yl)-2-hydroxypropyl]-2-methyl-8-(2-oxa-7-azaspiro[3.5]nonan-7-ylmethyl)-2,3-dihydro-1,4-benzoxazepin-5-one]	100 to 1000 nM
O=C1c2ccc(O[C@@H]3CCN(CCO)C[C@H]3F)cc2OCCN1C[C@H](O)CN1CCc2ccccc2C1 [Example 253, dihydrochloride]	100 to 1000 nM
CC(O)CN1CC[C@@H](Oc2ccc3c(c2)OCCN(C[C@H](O)CN2CCc4ccccc4C2)C3=O)[C@H](F)C1 (stereo partly drawn) [Example 254, 4-[(2R)-3-(3,4-dihydro-1H-isoquinolin-2-yl)-2-hydroxy-propyl]-8-[[(3R,4R)-3-fluoro-1-(2-hydroxypropyl)-4-piperidyl]oxy]-2-methyl-2,3-dihydro-1,4-benzoxazepin-5-one divalnet hydrochloride]	100 to 1000 nM
C[C@@H]1CN(C[C@H](O)CN2CCc3ccccc3C2)C(=O)c2ccc(OC3CCN(CCO)C[C@H]3F)cc2O1 (stereo partly drawn) [Example 255, (2R)-4-[(2R)-3-[(2R)-3-(3,4-dihydro-1H-isoquinolin-2-yl)-2-hydroxy-propyl]-8-[[(3R,4R)-3-fluoro-1-(2-hydroxyethyl)-4-piperidyl]oxy]-2-methyl-2,3-dihydro-1,4-benzoxazepin-5-one dihydrochloride]	100 to 1000 nM
CC1(C)CN(C[C@H](O)CN2CCc3ccccc3C2)C(=O)c2ccc(OC3CCN(CCO)CC3(F)F)nc2O1 (stereo partly drawn) [Example 256, 8-[[3,3-difluoro-1-(2-hydroxyethyl)-4-piperidyl]oxy]-4-[(2R)-3-(3,4-dihydro-1H-isoquinolin-2-yl)-2-hydroxy-propyl]-2,2-dimethyl-3H-pyrido[3,2-f][1,4]oxazepin-5-one]	100 to 1000 nM
C[C@@H]1CN(C[C@H](O)CN2CCc3ccccc3C2)C(=O)c2ccc(OC3CCN(CCO)CC3)cc2O1 [Example 261, (2R)-4-[(2R)-3-(3,4-dihydro-1H-isoquinolin-2-yl)-2-hydroxy-propyl]-8-[[1-(2-hydroxyethyl)-4-piperidyl]oxy]-2-methyl-2,3-dihydro-1,4-benzoxazepin-5-one di hydrochloride]	100 to 1000 nM
COCCN1CCC(Oc2ccc3c(n2)OC(C)(C)CN(C[C@H](O)CN2CCc4ccccc4C2)C3=O)CC1 [Example 262, 4-[(2R)-3-(3,4-dihydro-1H-isoquinolin-2-yl)-2-hydroxy-propyl]-8-[[1-(2-methoxyethyl)-4-piperidyl]oxy]-2,2-dimethyl-3H-pyrido[3,2-f][1,4]oxazepin-5-one]	100 to 1000 nM
C[C@@H]1CN(C[C@H](O)CN2CCc3ccccc3C2)C(=O)c2ccc(O[C@H]3CCN(C)C3)cc2O1 [Example 264, (2R)-4-[(2R)-3-(3,4-dihydro-1H-isoquinolin-2-yl)-2-hydroxy-propyl]-2-methyl-8-[(3S)-1-methylpyrrolidin-3-yl]oxy-2,3-dihydro-1,4-benzoxazepin-5-one]	100 to 1000 nM
C[C@H](O)CN1CCC(Oc2ccc3c(c2)O[C@H](C)CN(C[C@H](O)CN2CCc4ccccc4C2)C3=O)CC1 [Example 267, (2R)-4-[(2R)-3-(3,4-dihydro-1H-isoquinolin-2-yl)-2-hydroxy-propyl]-8-[[1-[(2S)-2-hydroxypropyl]-4-piperidyl]oxy]-2-methyl-2,3-dihydro-1,4-benzoxazepin-5-one]	100 to 1000 nM
C[C@@H]1CN(C[C@H](O)CN2CCc3ccccc3C2)C(=O)c2ccc(OC3CCN(C[C@@H](C)O)CC3)cc2O1 [Example 268, (2R)-4-[(2R)-3-(3,4-dihydro-1H-isoquinolin-2-yl)-2-hydroxy-propyl]-8-[[1-[(2R)-2-hydroxypropyl]-4-piperidyl]oxy]-2-methyl-2,3-dihydro-1,4-benzoxazepin-5-one]	100 to 1000 nM
COCCN1CC[C@@H](Oc2ccc3c(c2)OCCN(C[C@H](O)CN2CCc4ccccc4C2)C3=O)C1 [Example 272, 4-[(2R)-3-(3,4-dihydro-1H-isoquinolin-2-yl)-2-hydroxy-propyl]-8-[(3R)-1-(2-methoxyethyl)pyrrolidin-3-yl]oxy-2,3-dihydro-1,4-benzoxazepin-5-one]	100 to 1000 nM
C[C@@H]1CN(C[C@H](O)CN2CCc3ccccc3C2)C(=O)c2ccc(O[C@@H]3CCN(C)C3)cc2O1 [Example 273, (2R)-4-[(2R)-3-(3,4-dihydro-1H-isoquinolin-2-yl)-2-hydroxy-propyl]-2-methyl-8-[(3R)-1-methylpyrrolidin-3-yl]oxy-2,3-dihydro-1,4-benzoxazepin-5-one]	100 to 1000 nM

Further lines, results first:

IC50	SMILES
1 to 100 nM	O=C1c2ccc(-c3cccnc3)cc2OCCN1C[C@H](O)CN1CCc2ccccc2C1 [Example 230, 4-[(2R)-3-(3,4-dihydro-1H-isoquinolin-2-yl)-2-hydroxy-propyl]-8-(3-pyridyl)-2,3-dihydro-1,4-benzoxazepin-5-one]
1 to 100 nM	Cc1nn(C)cc1-c1ccc2c(c1)OCCN(C[C@H](O)CN1CCc3ccccc3C1)C2=O [Example 231, 4-[(2R)-3-(3,4-dihydro-1H-isoquinolin-2-yl)-2-hydroxy-propyl]-8-(1,3-dimethylpyrazol-4-yl)-2,3-dihydro-1,4-benzoxazepin-5-one]
100 to 1000 nM	Cn1cc(-c2ccc3c(c2)OCCN(C[C@H](O)CN2CCc4ccccc4C2)C3=O)cn1 [Example 232, 4-[(2R)-3-(3,4-dihydro-1H-isoquinolin-2-yl)-2-hydroxy-propyl]-8-(1-methylpyrazol-4-yl)-2,3-dihydro-1,4-benzoxazepin-5-one]
100 to 1000 nM	Cc1c(-c2ccc3c(c2)OCCN(C[C@H](O)CN2CCc4ccccc4C2)C3=O)cnn1C [Example 233, 4-[(2R)-3-(3,4-dihydro-1H-isoquinolin-2-yl)-2-hydroxy-propyl]-8-(1,5-dimethylpyrazol-4-yl)-2,3-dihydro-1,4-benzoxazepin-5-one]
1 to 100 nM	CC1(C)CN(C[C@H](O)CN2CCc3ccccc3C2)C(=O)c2ccc(OC3CCN(CCO)CC3)nc2O1 [Example 234, 4-[(2R)-3-(3,4-dihydro-1H-isoquinolin-2-yl)-2-hydroxy-propyl]-8-[[1-(2-hydroxyethyl)-4-piperidyl]oxy]-2,2-dimethyl-3H-pyrido[3,2-f][1,4]oxazepin-5-one]
100 to 1000 nM	CC(C)(O)CN1CCC(Oc2ccc3c(c2)OCCN(C[C@H](O)CN2CCc4ccccc4C2)C3=O)CC1 [Example 238, 4-[(2R)-3-(3,4-dihydro-1H-isoquinolin-2-yl)-2-hydroxy-propyl]-8-[[1-(2-hydroxy-2-methyl-propyl)-4-piperidyl]oxy]-2,3-dihydro-1,4-benzoxazepin-5-one]
100 to 1000 nM	CCOCCN1CCC(Oc2ccc3c(c2)O[C@H](C)CN(C[C@H](O)CN2CCc4ccccc4C2)C3=O)CC1 [Example 240, (2R)-4-[(2R)-3-(3,4-dihydro-1H-isoquinolin-2-yl)-2-hydroxy-propyl]-8-[[1-(2-ethoxyethyl)-4-piperidyl]oxy]-2-methyl-2,3-dihydro-1,4-benzoxazepin-5-one]
1 to 100 nM	COCCN1CCC(Oc2ccc3c(c2)OCCN(C[C@H](O)CN2CCc4ccccc4C2)C3=O)CC1 [Example 243]
100 to 1000 nM	CC(O)CN1CCC(Oc2ccc3c(c2)O[C@H](C)CN(C[C@H](O)CN2CCc4ccccc4C2)C3=O)CC1 (stereo partly drawn) [Example 245, (2R)-4-[(2R)-3-(3,4-dihydro-1H-isoquinolin-2-yl)-2-hydroxy-propyl]-8-[[1-(2-hydroxypropyl)-4-piperidyl]oxy]-2-methyl-2,3-dihydro-1,4-benzoxazepin-5-one]
100 to 1000 nM	CC(c1ccc2c(n1)OC(C)(C)CN(C[C@H](O)CN1CCc3ccccc3C1)C2=O)N1CCOCC1 (stereo partly drawn) [Example 246, 4-[(2R)-3-(3,4-dihydro-1H-isoquinolin-2-yl)-2-hydroxy-propyl]-2,2-dimethyl-8-(1-morpholinoethyl)-3H-pyrido[3,2-f][1,4]oxazepin-5-one]
1 to 100 nM	CC(O)CN1CCC(Oc2ccc3c(n2)OC(C)(C)CN(C[C@H](O)CN2CCc4ccccc4C2)C3=O)CC1 (stereo partly drawn) [Example 248, 4-[(2R)-3-(3,4-dihydro-1H-isoquinolin-2-yl)-2-hydroxy-propyl]-8-[[1-(2-hydroxypropyl)-4-piperidyl]oxy]-2,2-dimethyl-3H-pyrido[3,2-f][1,4]oxazepin-5-one]
